Test results as given in patent publication US7208517B1, “Endothelin antagonists” (Abbott Labortories, priority 1994, dated 2007).

Molecular target: T1, ETA Receptor (Rattus norvegicus, UniProt P26684)
T1 construct: endogenous in cells; host or cells: MMQ rat pituitary cells (membranes)
T1 sequence (P26684 21-426): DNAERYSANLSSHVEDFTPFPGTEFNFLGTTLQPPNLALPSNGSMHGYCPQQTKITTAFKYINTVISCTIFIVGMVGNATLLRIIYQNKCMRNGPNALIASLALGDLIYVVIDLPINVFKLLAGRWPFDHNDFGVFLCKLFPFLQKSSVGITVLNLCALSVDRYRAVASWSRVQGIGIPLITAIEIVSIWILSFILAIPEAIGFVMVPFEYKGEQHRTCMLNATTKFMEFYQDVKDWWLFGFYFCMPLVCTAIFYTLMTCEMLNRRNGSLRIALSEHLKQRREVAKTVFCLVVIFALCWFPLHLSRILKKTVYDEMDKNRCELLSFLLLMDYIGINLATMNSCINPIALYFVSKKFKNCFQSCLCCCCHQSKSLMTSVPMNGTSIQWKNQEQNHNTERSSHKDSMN
Assay: [125I]ET-1 binding to membranes from MMQ cells (ETA receptor binding assay, Table 4)
Settings: test compound at 1 μM; 0.1 nM [125I]ET-1, MMQ cell membranes, 4 hours at 25° C.
Experimental: Preparation of Membranes from MMQ Cells:
MMQ [MacLeod/MacQueen/Login cell line (prolactin secreting rat pituitary cells)] cells from 150 mL culture flasks were collected by centrifugation (1000×g for 10 min) and then homogenized in 25 mL of 10 mM Hepes (pH 7.4) containing 0.25 M sucrose and protease inhibitors [3 mM EDTA, 0.1 mM PMSF, and 5 μg/mL Pepstatin A] by a micro ultrasonic cell disrupter (Kontes). The mixture was centrifuged at 1000×g for 10 min. The supernatant was collected and centrifuged at 60,000×g for 60 min. The precipitate was resuspended in 20 mM Tris, pH 7.4 containing the above protease inhibitors and centrifuged again. The final pellet was resuspended in 20 mM Tris, pH 7.4 containing protease inhibitors and stored at −80° C. until used. Protein content was determined by the Bio-Rad dye-binding protein assay.
Binding assays were performed in 96-well microtiter plates pretreated with 0.1% BSA. […] After incubation, unbound ligands were separated from bound ligands by a vacuum filtration method using glass-fiber filter strips in PHD cell harvesters (Cambridge Technology, Inc., MA), followed by washing the filter strips with saline (1 mL) for three times. Nonspecific binding was determined in the presence of 1 μM ET-1.

Row | Structure (SMILES) | % Inhibition of ETA at 1 μM [%]
1 | CCN(CC)C(=O)CN1CC(c2ccc3c(c2)OCO3)C(C(=O)O)C1c1ccc(OC)cc1 (stereo not drawn) [Example 44, trans,trans-2-(4-Methoxyphenyl)-4-(1,3-benzodioxol-5-yl)-1-(N,N-diethylaminocarbonylmethyl)-pyrrolidine-3-carboxylic acid] | 91.3
2 | COc1ccc(C2C(C(=O)O)C(c3ccc4c(c3)OCO4)CN2CC(=O)N(C)c2ccccc2)cc1 (stereo not drawn) [Example 45, trans,trans-2-(4-Methoxyphenyl)-4-(1,3-benzodioxol-5-yl)-1-(N-methyl-N-phenylaminocarbonylmethyl)-pyrrolidine-3-carboxylic acid] | 85.4
3 | CCCN(C)C(=O)CN1CC(c2ccc3c(c2)CCO3)C(C(=O)O)C1c1ccc(OC)cc1 (stereo not drawn) [Example 52, trans,trans-2-(4-Methoxyphenyl)-4-(2,3-dihydrobenzofuran-5-yl)-1-(N-methyl-N-propyl)aminocarbonylmethyl)-pyrrolidine-3-carboxylic acid] | 84.0
4 | CCCN(C)C(=O)CN1CC(c2ccc(OC)c(OC)c2)C(C(=O)O)C1c1ccc(OC)cc1 (stereo not drawn) [Example 54, trans,trans-2-(4-Methoxyphenyl)-4-(3,4-dimethoxyphenyl)-1-(N-methyl-N-propyl)aminocarbonylmethyl)-pyrrolidine-3-carboxylic acid] | 64.6
5 | CCCN(C)C(=O)CN1CC(c2cccc(OC)c2)C(C(=O)O)C1c1ccc(OC)cc1 (stereo not drawn) [Example 55, trans,trans-2-(4-Methoxyphenyl)-4-(3-methoxyphenyl)-1-(N-methyl-N-propyl)aminocarbonylmethyl)-pyrrolidine-3-carboxylic acid] | 50.5
6 | CCCN(C)C(=O)CN1CC(c2ccc3ccccc3c2)C(C(=O)O)C1c1ccc(OC)cc1 (stereo not drawn) [Example 56, trans,trans-2-(4-Methoxyphenyl)-4-(2-naphthyl)-1-(N-methyl-N-propyl)aminocarbonylmethyl)-pyrrolidine-3-carboxylic acid] | 34.3
7 | CC[S+]([O-])CCN1CC(c2ccc3c(c2)OCO3)C(C(=O)O)C1c1ccc(OC)cc1 (stereo not drawn) [Example 57, trans,trans-2-(4-Methoxyphenyl)-4-(1,3-benzodioxol-5-yl)-1-(2-(ethylsulfinyl)ethyl)-pyrrolidine-3-carboxylic acid] | 93.2

Continued, values first:

Row | % Inhibition of ETA at 1 μM [%] | Structure (SMILES)
8 | 90.6 | COc1ccc(C2C(C(=O)O)C(c3ccc4c(c3)OCO4)CN2CCN(C)C(=O)C(C)C)cc1 (stereo not drawn) [Example 61C, trans,trans-2-(4-Methoxyphenyl)-4-(1,3-benzodioxol-5-yl)-1-(2-(N-methyl-N-isobutyrylamino)ethyl)-pyrrolidine-3-carboxylic acid]
9 | 37.4 | COc1ccc(C2C(C(=O)O)C(c3ccc4c(c3)OCO4)CN2C/C=C/CC(C)C)cc1 (stereo not drawn) [Example 69D, trans,trans-2-(4-Methoxyphenyl)-4-(1,3-benzodioxol-5-yl)-1-N-(trans-5-methylhex-2-enyl)-pyrrolidine-3-carboxylic acid]
10 | 80.7 | CCCCC(=O)CN1CC(c2ccc3c(c2)OCO3)C(C(=O)O)C1c1ccc(OC)cc1 (stereo not drawn) [Example 72C, trans,trans-2-(4-Methoxyphenyl)-4-(1,3-benzodioxol-5-yl)-1-(valerylmethyl)-pyrrolidine-3-carboxylic acid]
11 | 96.3 | COc1ccc(C2C(C(=O)O)C(c3ccc4c(c3)OCO4)CN2CC(=O)N(C)Cc2ccc(OC)c(OC)c2)cc1 (stereo not drawn) [Example 73C, trans,trans-2-(4-Methoxyphenyl)-4-(1,3-benzodioxol-5-yl)-1-(N-(3,4-dimethoxybenzyl)-N-methylaminocarbonylmethyl)pyrrolidine-3-carboxylic acid]
